SMILES strings stand for the structures. Bounds are passed on as bounds.

What is called melting point is the temperature, or range, at which the solid turns liquid.

As for `CC(C)OC(=O)Cn1c(=O)n(C)c(=O)n(-c2cc(N=c3sc(=S)n4n3CCCCC4)c(F)cc2Cl)c1=O`, the melting point lay in the range of 108 to 118 °C.

Consider `COc1cccc(Nc2nc(OCC3CCCCC3)c3[nH]cnc3n2)c1`, for which the melting point was 186 to 189 °C.

Compound `CC(C)SC1=C(C#N)C(c2ccccc2)(c2ccccc2)C(=O)N1` showed a melting point of 160 °C.

Consider `CCCNC(=O)c1cc2ccc(OC)cc2n1CCNC(C)=O`, for which the melting point lay in the range of 127 to 128 °C.

`CCCn1c(=O)c2c(nc(/C=C/c3ccc(OC(=O)c4ccccc4)c(OC(=O)c4ccccc4)c3)n2C)n(CCC)c1=O`: the melting point is 231 °C.

The compound `COc1ccc(CS[C@H]2C[C@@H](C(N)=O)N(CCF)C2)cc1` displayed a melting point of 122 to 123 °C.

Consider `O=C(CN1CCC(CCc2ccccc2)CC1)Nc1ccc2c(c1)OCC(=O)N2`, for which the melting point was 200 to 203 °C.

For `COc1ccc(Oc2c(Br)cc(C#N)cc2Br)cc1Cc1ccc(=O)[nH]n1`, the melting point was in the range of 214 to 216 °C.

Turning to `COc1csc(C=CC(=O)c2ccccc2)c1`, the melting point came out at 104 °C.

`O=C(O)c1ccccc1Sc1cccc2c1C(=O)NC2=O`: the melting point was in the range of 289 to 290 °C.

In turn, `Cc1nc2ncnn2c(N2CCC(C)CC2)c1-c1ccc(F)cc1Cl` displayed a melting point of 236 °C.

Take `COC(=O)NN=Cc1ccc([N+](=O)[O-])cc1`: the melting point was in the range of 212 to 213 °C.

The compound `O=C(O)Cc1c(-c2cccs2)nn(-c2ccccc2)c1-c1cccs1` registered a melting point of 216 to 218 °C.

Consider `COc1ccccc1N1CCN(CCCn2c(=O)[nH]c3c(c2=O)CCCC3)CC1`, for which the melting point was 212 to 214 °C.

Compound `Cc1cc(C)nc(N(C=O)c2ccccc2)n1` had a melting point of 134 to 135 °C.

Regarding `CC(C)CC1CNCCNCCNCCNCCN1` (configuration not stated), the melting point lay within 70 to 76 °C.

Regarding `CCCCCC(=O)OCC(CO)CCn1cnc2c(=O)[nH]c(N)nc21` (configuration not stated), the melting point was in the range of 179 to 181 °C.

In turn, `CCOP(=O)(OCC)c1nc(N2CCOCC2)nc(N2CCOCC2)n1` gave a melting point of 114 to 116 °C.

Compound `Cc1cc(C)c(C(=O)P(=O)(C(=O)c2c(C)cc(C)cc2C)c2ccccc2)c(C)c1` yielded a melting point of 130 to 131 °C.

Turning to `CC(=O)OC(CCC(C)(C)C)C(C)C1CCC2C3CC=C4CC(O)CCC4(C)C3CCC12C` (configuration not stated), the melting point lay within 210 to 212 °C.

`OCc1ccc(-c2cncc(OC3SCC(O)C(O)C3O)c2)cc1` (configuration not stated): the melting point worked out at 153 °C.

Turning to `Cc1ccnc2c(N)cc3c(c12)OCO3`, the melting point is 118 to 120 °C.

As for `CCCCCCCCCCCCCCOc1ccc(CCN(C(C)=O)c2cccc(Cc3nccs3)c2)cc1`, the melting point fell in the range of 46 to 50 °C.

`Cn1c(-c2ccc(-c3ccccn3)cc2)c(C(=O)N2CCC(OCC(=O)O)CC2)c(=O)n1-c1ccc(C#N)cc1` yielded a melting point of 156 to 159 °C.

The compound `O=C(O)CCc1cc(OCCCc2cn(-c3ccc(C(F)(F)F)cn3)nc2OCc2ccccc2)nn1-c1ccccc1` showed a melting point of 159 to 161 °C.

Regarding `COc1ccc2nc(C(=O)O)cnc2c1`, the melting point was 248 °C.

The compound `CN(c1cccc2cc(C3=NCC(CN4CCOCC4)S3)[nH]c12)S(=O)(=O)c1cccnc1` (configuration not stated) registered a melting point of 234 to 236 °C.

Compound `C[C@@H](C(O)=S)c1cc(C(C)(C)C)c(O)c(C(C)(C)C)c1` displayed a melting point of 111 to 112 °C.

Regarding `NC(=O)c1ccccc1N1CCN(Cc2cn3cc(Cl)ccc3n2)CC1`, the melting point fell in the range of 178 to 179 °C.

Take `COc1cc2c(cc1OC)C1Cc3cc(OC)c(OC(C)=O)cc3CN1CC2` (configuration not stated): the melting point lay in the range of 162 to 164 °C.

Compound `Cc1cc2c(ccc3ccsc32)c2ccccc12` gave a melting point of 130 to 131 °C.

`CC(=O)O[C@H]1c2cc(F)ccc2Cc2ccccc2[C@H]1C[C@@H]1COC(C)(C)O1` showed a melting point of 147 to 149 °C.

`O=C1OCC(c2ccc(Cl)cc2)C1CSCc1ccccc1` (configuration not stated) displayed a melting point of 66 to 69 °C.

On to `O=C(c1ccccc1)N1CCCSC1=C[N+](=O)[O-]`, for which the melting point was in the range of 90 to 92 °C.

In the case of `CCCN(CCC)C(=O)COC1Cc2cccc(OCC(O)CNC(C)(C)C)c2CC1OCC(=O)N(CCC)CCC` (configuration not stated), the melting point is 124 to 134 °C.

As to `Cc1nnc(-c2nn(-c3cccc(C(F)(F)F)c3)ccc2=O)n1-c1ccccc1`, the melting point lay in the range of 191 to 192 °C.

`COc1cc2c(cc1OC)/C(=C/c1cc(OC)c(OC)c(OC)c1)N(C(=O)Cc1cc(OC)c(OC)c(OC)c1)CC2` came in with a melting point of 148 to 150 °C.

For `CNCc1cccc2c(=O)c(C)c(-c3ccccc3)oc12`, the melting point lay within 97 to 99 °C.

In turn, `Cc1nnc2n1-c1ccc(Cl)cc1C(N1CCOCC1)=NC2` displayed a melting point of 243 to 253 °C.

Take `Cc1cc(C)c2nc(-c3cnc(NCCCC4CCN(C)CC4)nc3C)[nH]c2c1`: the melting point amounted to 179 °C.

For the compound `CCOCC(OC(C)=O)C1CC(=O)C2(C)CCC3C(CCC4=CC(=O)C=C(C)C43C)C12` (configuration not stated), the melting point fell in the range of 155 to 157 °C.

Compound `Cc1ccc(COc2cccnc2NC(=S)Nc2ccc(Cl)cc2)cc1` came in with a melting point of 145 to 147 °C.

`O=C(O)c1ccc(NCCCOc2ccc(Cl)cc2)cc1` had a melting point of 180 to 181 °C.

Regarding `O=S1(=O)c2ccccc2N(c2ccc(O)cc2)c2ccccc21`, the melting point is 308 to 311 °C.

With `OCC1OC(n2cnc3c(NC4CCN(Cc5ccccc5)CC4)ncnc32)C(O)C1O` (configuration not stated), the melting point was 176 to 182 °C.

`COC(=O)c1[nH]c(C)c(C)c1OCCCCl` gave a melting point of 117 to 120 °C.

Consider `CCCCCCCCCCCCCC(CP(c1ccccc1)c1ccccc1)C(C)CP(c1ccccc1)c1ccccc1` (configuration not stated), for which the melting point fell in the range of 105 to 106 °C.

For the compound `Cn1c(=O)n(CCCN2CCC3(CC2)C(=O)NCN3c2ccccc2)c2ccccc21`, the melting point was 164 °C.

On to `COc1cc(C(C)=O)ccc1OCCN1CCC(C(c2ccc(F)cc2)c2ccc(F)cc2)CC1`, for which the melting point lay in the range of 129 to 131 °C.

The compound `COc1ccc(Cn2nc(CN3CCN(c4ccccc4OC)CC3)c3cc(OC)c(OC)cc32)cc1OC` registered a melting point of 149 to 150 °C.

As for `CON=Cc1cc(=O)c(OCc2ccccc2)c(C(=O)c2ccc(Cc3ccc(F)cc3)o2)o1`, the melting point was 116 to 117 °C.

Compound `Cc1ccc(S(=O)(=O)Nc2ccc(SC#N)cc2)cc1` gave a melting point of 122 to 124 °C.

The compound `CCCCc1nc2cccc(C(=O)O)c2n1Cc1ccc(-c2ccccc2-c2nc(=S)o[nH]2)cc1` came in with a melting point of 178 to 180 °C.

For `COc1ccccc1-n1nccc1-c1nn(-c2cccc(C(F)(F)F)c2)ccc1=O`, the melting point lay within 146 to 147 °C.

`O=C(Nc1nc2ccc(C(F)(F)F)cc2s1)c1c(F)cccc1F` returned a melting point of 256 to 257 °C.

For `O=C(/C=C/c1ccc(Br)cc1)c1cnc2sccn12`, the melting point was 213 to 215 °C.

The compound `CN1C(=O)C([S-])=C(SC(N)=[NH2+])C1=O` yielded a melting point of 150 to 152 °C.

Compound `CCOCc1nc2c(N)nc3cc(-c4ccccc4)ccc3c2n1CC(C)(C)O` displayed a melting point of 211 to 212 °C.

`CSc1cc(C)nc(SC)c1NC(=O)CCCCCSc1nc2ccccc2s1`: the melting point lay in the range of 123 to 125 °C.

In the case of `CC(C)n1nc(-c2c(Nc3ccccn3)nc(N)nc2-c2ccccc2)ccc1=O`, the melting point lay in the range of 163 to 164 °C.

`CCc1nc(Cl)nc(N)c1C#N` showed a melting point of 226 °C.

In the case of `COc1ccc(Sc2nc(C)n(Cc3cc4c(cc3Cl)OCO4)c2C(=O)O)cc1`, the melting point is 200 to 210 °C.

In the case of `O=C1COc2cc(Sc3ccc(O)c(O)c3)ccc2N1`, the melting point fell in the range of 236 to 238 °C.

As to `CC(C)NC(=O)c1ccn2nc(-c3ccccc3)c(-c3ccc(=O)n(C(C)C)n3)c2c1`, the melting point lay within 230 to 232 °C.

The compound `COc1ccc(C2CNCc3c2ccc(OC)c3Cl)cc1OC` (configuration not stated) yielded a melting point of 130 to 132 °C.

In turn, `CC(=O)Nc1ccc2[nH]c(=O)cc(CCN3CCC(c4c[nH]c5ccccc45)CC3)c2c1` returned a melting point of 180 to 183 °C.

As for `CC(C)(C)OC(=O)N1CCc2ccc(NS(C)(=O)=O)cc2CC1`, the melting point was 153 to 154 °C.

In turn, `COc1ccc2c(c1)CCN(Cc1cnc(C)nc1N)C2` displayed a melting point of 142 to 143 °C.

Compound `CC(C)C(C#N)Nc1ccc(C(F)(F)F)cc1` (configuration not stated) had a melting point of 64.5 to 67 °C.

`CN1CCN(c2c(Cl)cc3c(=O)c(C(=O)O)cn(C4CC4)c3c2Cl)CC1` gave a melting point greater than 300 °C.

Turning to `CC1=Nc2ccc(C)cc2C(=O)C1`, the melting point was 80 to 82 °C.

In the case of `COC(=O)C(Oc1ccc(Cl)cc1)c1ccc(Oc2ccccc2)cc1` (configuration not stated), the melting point was in the range of 99 to 102 °C.

Regarding `O=C(Nc1cccnc1)N1CCN(c2nccc(-c3c(F)cccc3F)n2)CC1`, the melting point fell in the range of 185 to 186 °C.

Regarding `c1ccc(-c2cc3n(n2)CCNC3CC2CCCCC2)cc1` (racemic), the melting point lay in the range of 128 to 130 °C.

In the case of `CS(=O)(=O)C(S(C)(=O)=O)S(=O)(=O)O`, the melting point was greater than 300 °C.

As for `COc1ccc2c(c1)C(c1ccc(N)cc1)=NN(C(=O)C1CC1)C(C)C2` (configuration not stated), the melting point was 93 to 95 °C.

The compound `CCOC1=CC(=O)N([C@@H]2c3cc(C#N)ccc3OC(C)(C)[C@H]2OC(C)=O)C1` (relative stereo) came in with a melting point of 156 °C.

Consider `Nc1cc(-c2ccco2)ccc1Nc1cccc(-n2cccc2)c1`, for which the melting point was 163 to 164 °C.

In turn, `COc1cc(C)nc2nc(S(=O)(=O)Nc3c(Cl)ccc(C)c3Cl)nn12` registered a melting point of 239 to 242 °C.

`Cc1cccc(C)c1NC(=O)CN1CCN(Cc2ccccc2)CC1C(C)O` (configuration not stated) gave a melting point of 149 °C.

Consider `COc1cc(N2CCOCC2)ccc1Nc1nc(Nc2cc(F)cc3c2OCCNC3=O)ncc1Cl`, for which the melting point is greater than 230 °C.

`NCC1Cc2c(ccc3c2CCCC3)O1` (configuration not stated) had a melting point greater than 225 °C.

As for `CNC(=O)Oc1ccc(N=Cc2ccccc2O)c(C)c1`, the melting point was in the range of 156 to 157 °C.

Compound `Clc1cccc(-c2ccc3cnc(Nc4ccc(N5CCOCC5)nc4)nn23)c1` registered a melting point of 221 to 222 °C.

Take `O=C1C(=O)N(c2ccc(Cl)cc2)C(=O)N1c1ccccc1`: the melting point was 154 °C.

For the compound `FC(F)(F)c1cccc(-c2nc(-c3ccccn3)no2)c1`, the melting point was 116 to 118 °C.

Consider `CC(=O)OCC1=C(C(=O)OC(c2ccccc2)c2ccccc2)N2C(=O)C(NC(=O)Cc3csc(-c4c(O)cccc4O)n3)C2SC1` (configuration not stated), for which the melting point is 144 to 146 °C.
